The values below are quoted from earlier work in US10772837B2, “Modified release multi-layer tablet cannabinoid formulations” (CannTab Therapeutics, Limited, priority 2017, dated 2020).

The conditions of data set [1]: for solubility: in water.
For data set [2] the following is noted: pure CBD, twice-daily dosages, paediatric patients; ranging from total seizure freedom to these reductions.

Read-outs that look alike come from different tables or passages of the source.

Turning to `CCCCCc1cc(O)c2c(c1)OC(C)(C)[C@@H]1CCC(C)=C[C@@H]21` [Dronabinol, (−)-trans-Δ9-tetrahydrocannabinol], the BCS class result in data set [1] (NICHD/FDA Oral Formulations Platform Report 1) is on record as “class 2 or class 4”. Moreover, the solubility result in data set [1] was “insoluble in water”; in data set [1] (listed as dronabinol), “low”.
On to `C=C(C)[C@@H]1CCC(C)=C[C@H]1c1c(O)cc(CCCCC)cc1O` [CBD, cannabidiol], for which the seizure reduction in data set [2] is reported as 25-80%.
